# Entries after “also recorded” stand apart in the source; their conditions may differ.
# What was measured:
# [1] = test system: hepatic stellate cells; assay: Activation of cultured hepatic stellate cells (α-SMA immunohistochemistry); assay type: cell-based, Sprague-Dawley rats; details: for effect on stellate cell activation / increased α-SMA expression induced by collagen type I matrix: cultured on collagen type I matrix
# Protocol: Stellate cells were prepared from male Sprague-Dawley (400-500 grams) rats (Charles River Breeding Labs) by in situ perfusion of the liver and single-step density Nycodenz® gradient (Accurate Chemical & Scientific Corp.). [See Bedossa et al., Hepatology 19(5):1262-71 (1994); Brenner et al., Mol. Biol. Med. 7:105-15 (1990)]. The cells were mixed with 9.5 mL Hank's buffer containing 3 g/L BSA and 8 mL of 28.7% (w/v) Nycodenz® in sodium-free Hank's buffer. The gradient was generated by placing 6 mL of the Hank's/BSA solution on top of the liver cell mixture in a 50 mL centrifugation tube. […] For TGFα-induced stellate cell activation, cells were cultured on plastic in serum-free defined media (Fibroblast basal medium with Insulin, Clonetics). Fibroblast basal medium is similar to F12 medium, but contains folinic acid, Hepes buffer with NaOH, MgSO4, and adenine instead of folic acid, NaHCO3, MgCl2 and hypoxanthine. Cells were plated on 60-mm dishes coated with collagen type 1, EHS matrix (Matrigel; Collaborative Bio-medical Products) or plastic (according to the experimental design), for the initial seeding of fat-storing cells at a density of 2-3×10^6. Matrigel's major components are […], collagen IV, proteoglycans, entactin and nidogen; it also contains:TGFβ, fibroblast growth factor, and tissue plasminogen activator. […] Medium was changed every 24 h for all conditions. The sequences of c-myb oligonucleotide phosphorothioate were: sense ([NT] ID NO:3) and antisense ([NT] ID NO:4). Stellate cells were identified by their typical autofluorescence at 328 nm excitation wavelength, staining of lipid droplets by oil red, and immunohistochemistry with a monoclonal antibody against desmin. [Bedossa et al., Hepatology 19(5):1262-71 (1994)]. Cells, fixed with acetone:methanol (50:50) at -20° C. for 20 min., and liver tissue were immunostained as described, e.g., by Buck et al., EMBO J. 13:851-60 (1994). Antibodies directed against c-myb, NFkB65, α-SMA, or PCNA were obtained from Sigma, 5 Prime 3 Prime, and Oncogene Sciences. Fluorescent labels were visualized using a dual channel Zeiss microscope and a computer imaging system (Image 1 software). A phase-contrast microscope was utilized to visualize antigens with alkaline phosphatase secondary antibodies (Vector Laboratories). Cytochromes utilized were alkaline phosphatase with fast green as counterstain, and FITC with Evans blue as counterstain (Sigma). The number of PCNA (+), c-myb(+), or NFkB(+), α-SMA(+) cells was expressed as a percentage of total cells. At least 1,000 cells were analyzed for each experimental point, and a minimum of two observers analyzed each immunohistochemical experiment independently. Negative control samples were processed in parallel under the same conditions, but with omission of the first antibody. The role of lipid peroxidation on stellate cell activation was examined. Stellate cell activation was induced in quiescent cells growing on a EHS matrix; inhibition of this phenotype was evaluated with cells activated by collagen type I matrix. [See Davis et al., J. Biol. Chem. 262:10280-86 (1987)]. When stellate cell activation was induced by TGFα as described, e.g., by Pinzani et al., J. Clin. […] Stellate cell activation was assessed by the expression of α-SMA (as described in Example 1) and S-phase by the presence of PCNA. [Bravo et al., Nature (Lond.) 326:515-17 (1987)]. […] SEM<30% of the mean for all conditions).
# [2] = test system: hepatic stellate cells; assay: Proliferation of cultured hepatic stellate cells (nuclear expression of PCNA, S-phase); assay type: cell-based, Sprague-Dawley rats; details: for effect on stellate cell cycle activation (PCNA) induced by collagen type I matrix or TGFα: 50 μM
# Protocol: Stellate cells were prepared from male Sprague-Dawley (400-500 grams) rats (Charles River Breeding Labs) by in situ perfusion of the liver and single-step density Nycodenz® gradient (Accurate Chemical & Scientific Corp.). […] The cells were mixed with 9.5 mL Hank's buffer containing 3 g/L BSA and 8 mL of 28.7% (w/v) Nycodenz® in sodium-free Hank's buffer. The gradient was generated by placing 6 mL of the Hank's/BSA solution on top of the liver cell mixture in a 50 mL centrifugation tube. After centrifugation (1000 g, 4° C., 20 min) the cells were aspirated from above the interface and washed twice in serum-free DME regular glucose medium.
# Thereafter, the cells were cultured under an atmosphere of 5% CO2, 95% air in tissue culture dishes using DME medium containing penicillin G 100 units/mL, streptomycin sulfate 100 μg/mL and 10% fetal calf serum. For TGFα-induced stellate cell activation, cells were cultured on plastic in serum-free defined media (Fibroblast basal medium with Insulin, Clonetics). Fibroblast basal medium is similar to F12 medium, but contains folinic acid, Hepes buffer with NaOH, MgSO4, and adenine instead of folic acid, NaHCO3, MgCl2 and hypoxanthine. Cells were plated on 60-mm dishes coated with collagen type 1, EHS matrix (Matrigel; Collaborative Bio-medical Products) or plastic (according to the experimental design), for the initial seeding of fat-storing cells at a density of 2-3×10^6. […]
# The number of PCNA (+), c-myb(+), or NFkB(+), α-SMA(+) cells was expressed as a percentage of total cells. At least 1,000 cells were analyzed for each experimental point, and a minimum of two observers analyzed each immunohistochemical experiment independently. […]
# The role of lipid peroxidation on stellate cell activation was examined. Stellate cell activation was induced in quiescent cells growing on a EHS matrix; inhibition of this phenotype was evaluated with cells activated by collagen type I matrix. […] Stellate cell activation was assessed by the expression of α-SMA (as described in Example 1) and S-phase by the presence of PCNA.
# [3] = cited from earlier work
# [4] = test system: cultured stellate cells; details: cited from earlier work
# [5] = target: T1, 5-lipoxygenase (Homo sapiens, UniProt P09917); details: cited from earlier work
# T1 sequence (P09917 1-674): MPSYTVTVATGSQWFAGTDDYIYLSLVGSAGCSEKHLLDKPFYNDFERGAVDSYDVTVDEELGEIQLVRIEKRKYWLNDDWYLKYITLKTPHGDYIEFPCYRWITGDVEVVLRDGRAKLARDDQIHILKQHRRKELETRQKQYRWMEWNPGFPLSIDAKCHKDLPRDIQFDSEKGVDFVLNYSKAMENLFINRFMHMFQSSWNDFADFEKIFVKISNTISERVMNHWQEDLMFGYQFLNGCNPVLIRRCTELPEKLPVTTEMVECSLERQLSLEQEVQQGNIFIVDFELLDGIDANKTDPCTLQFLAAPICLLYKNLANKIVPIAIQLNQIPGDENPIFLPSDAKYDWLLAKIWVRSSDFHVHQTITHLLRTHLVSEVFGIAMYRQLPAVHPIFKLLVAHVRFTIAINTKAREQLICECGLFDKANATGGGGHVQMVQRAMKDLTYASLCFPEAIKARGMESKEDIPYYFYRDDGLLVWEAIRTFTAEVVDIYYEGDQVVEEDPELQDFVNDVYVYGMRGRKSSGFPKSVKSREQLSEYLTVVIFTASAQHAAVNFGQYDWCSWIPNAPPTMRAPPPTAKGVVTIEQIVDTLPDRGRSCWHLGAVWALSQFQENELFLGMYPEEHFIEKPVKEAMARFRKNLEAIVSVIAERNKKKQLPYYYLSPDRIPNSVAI
# [6] = test system: fatty acid cyclooxygenase; details: cited from earlier work
# [7] = test system: human polymorphonuclear leukocytes; details: stimulated with calcium ionophore A23187; cited from earlier work
# [8] = test system: phospholipase A2; details: cited from earlier work
# [9] = test system: fibrogenesis cascade in the liver of patients with chronic hepatitis C; assay: Liver biopsy immunohistochemistry and in situ hybridization in patients with chronic hepatitis C; assay type: in vivo, human; details: 8 weeks
# Protocol: Antisera to MDA-lysine adducts were prepared by a variation of the technique described by Houglum et al., J Clin Invest 86:1991-98 (1990). Briefly, rabbit LDS was purified and modified with MDA, and the modified autologous LDL was used to immunize rabbits.
# Sections from paraffin-embedded blocks were deparaffinized, passed through graded series of alcohol, rehydrated in PBS, and stained with hematoxylin and eosin. Immunohistochemistry was performed using the avidin-biotin complex-alkaline phosphatase, peroxidase systems (Vector Laboratories, ABC-peroxidase system) or fluorescein. Sections were immunostained with antibodies specific for MDA-protein adducts, α-smooth muscle actin (Sigma), or c-myb.
# The antisera was used with fluorochrome-conjugated secondary antibodies. Fluorescent labels were visualized using a dual filter Zeiss microscope, while a phase-contrast microscope was used to visualize antigens with hematoxilin/eosin or alkaline phosphatase secondary antibodies.
# Hybridization, RNase digestion of mismatched sequences, and immunological detection of the digoxigenin-labeled RNA probes were performed as described by Houglum et al., Am. […] Briefly, single stranded RNA probes in both sense and antisense orientations were transcribed in vitro from the plasmid pHuCol, which contains a 300 base pair cDNA fragment of the human collagen α1(I) gene, and labeled with digoxigenin-11-UTP. […] For the labelling procedure, 2 μg of linearized plasmid were transcribed in a 30 μL reaction volume containing 40 mM tris(hydroxymethyl)aminomethane (Tris).HCl, pH 7.9; 6 mM MgCl2; 2 mM apermidine.HCl; 10 mM dithiothreitol, 10 mM ATP, CTP, and GTP; 6.5 mM UTP; and 3.5 mM digoxigenin-11-UTP with 309 units of T3 or T7 DNA polymerase. The specificity of the probe was assessed by in situ hybridization of human skin. All sections were processed using same batches of probe and reagents and using sense and antisense in parallel.
# [10] = Plasma d-α-tocopherol by high pressure chromatography in patients; assay type: in vivo, human; details: 1,200 IU/day orally for 8 weeks; before treatment 9.6±4.3; P<0.003
# Excerpt: (§1) Patients with chronic active hepatitis C and severe necro-inflammatory changes without cirrhosis (as established by liver biopsy) were studied at the University of California San Diego Liver Clinic. Six patients (2 women and 4 men; 47±8 years) who had not responded to interferon α-2b therapy (i.e., who were refractory) and with no other co-morbid illnesses received 1,200 IU/day of d-α-tocopherol orally for 8 weeks. On completion of the study, all patients underwent a liver biopsy; liver sections from patients with chronic hepatitis C and from individuals without liver disease were provided by Dr. C. Behling at UCSD.
# (§2) Liver tissue obtained from biopsies was studied, as described below, by immunohistochemistry and in situ hybridization with specific riboprobes. Carbonyl modifications were assayed in plasma proteins, as an index of oxidative stress. [Palinski et al., Arteriosclerosis 10:325-35 (1990)]. Serum alanine aminotransferase (ALT) was determined with a (Hitachi) analyzer, plasma d-α-tocopherol by high pressure chromatography, and HCV RNA by quantitative PCR. [See U.S. Pat. Nos. 4,683,202 and 4,683,195, hereby incorporated by reference].
# [11] = Carbonyl modifications of plasma proteins (index of oxidative stress) in patients; assay type: in vivo, human; details: 1,200 IU/day, 8 weeks; before treatment 2.7±0.4; P<0.001
# Excerpt: as §1, §2
# [12] = test system: HCV; assay: HCV RNA by quantitative PCR in patients; assay type: in vivo, human; details: 1,200 IU/day, 8 weeks
# Excerpt: as §1, §2
# [13] = test system: collagen expression; details: injected into mice; cited from earlier work
# [14] = nutritional- or CCl4-induced injury; cited from earlier work
# [15] = test system: chronic hepatitis B or C; details: in vivo; cited from earlier work
# [16] = test system: cyclooxygenase; details: cited from earlier work
# [17] = target: T1, 5-lipoxygenase; details: cited from earlier work; remark: listed apart in the source
# [18] = in vivo; cited from earlier work
molecule,measurement,setting,value
"Cc1cc(C(C)(C)C)c(O)c(C(C)(C)C)c1 [BHT, 2,6-Bis(1,1-dimethylethyl)-4-methylphenol]",effect on stellate cell activation / increased α-SMA expression induced by collagen type I matrix,[1]; 50 μM,blocked the induction of stellate cell activation by collagen type I matrix; also recorded: abolished
same,effect on stellate cell cycle activation (PCNA) induced by collagen type I matrix or TGFα,[2],blocked the activation of the stellate cell cycle
same,solubility in alcohols,[3]; alcohols like ethanol and isopropanol,soluble
same,solubility in water,[3]; water,insoluble
NC1=NN(c2cccc(C(F)(F)F)c2)CC1 [BW-755c],inhibition of activation and collagen expression/production,[4],success in inhibiting activation and collagen production
"CC(C)(C)c1cc(C=C2SCNC2=O)cc(C(C)(C)C)c1O [LY-178002, 5-{[3,5-bis(1,1-dimethylethyl)-4-hydroxyphenyl]methylene}-4-thiazolidine]",enzymatic activity of 5-lipoxygenase,[5],inhibit
same,enzymatic activity of fatty acid cyclooxygenase,[6],inhibit
same,leukotriene B4 production,[7],inhibit leukotriene B4 production
same,enzymatic activity of phospholipase A2,[8],inhibit
"CN1CSC(=Cc2cc(C(C)(C)C)c(O)c(C(C)(C)C)c2)C1=O [LY-256548, 5-{[3,5-bis(1,1-dimethylethyl)-4-hydroxyphenyl]methylene}-4-N-methylthiazolidine]",enzymatic activity of 5-lipoxygenase,[5],inhibit
same,enzymatic activity of fatty acid cyclooxygenase,[6],inhibit
same,leukotriene B4 production,[7],inhibit leukotriene B4 production
same,enzymatic activity of phospholipase A2,[8],inhibit
Cc1c(C)c2c(c(C)c1O)CC[C@@](C)(CCC[C@H](C)CCC[C@H](C)CCCC(C)C)O2 [d-α-tocopherol],effect on stellate cell activation / increased α-SMA expression induced by collagen type I matrix,[1]; 50 μM,blocked the induction of stellate cell activation by collagen type I matrix; also recorded: abolished
same,effect on stellate cell cycle activation (PCNA) induced by collagen type I matrix or TGFα,[2],blocked the activation of the stellate cell cycle
same,expression of c-myb in stellate cells,"[9]; 1,200 IU/day orally",diminished expression of c-myb in stellate cells
same,stellate cell activation (α-SMA) in liver sections,"[9]; 1,200 IU/day orally",lesser degree of stellate cell activation
same,expression of collagen α1(I) mRNA in stellate cells,"[9]; 1,200 IU/day orally, in situ hybridization",lower expression of collagen al(I) mRNA in stellate cells
same,MDA-adducts in liver sections,"[9]; 1,200 IU/day orally, patients refractory to interferon",decreased MDA-adducts
same,effect on histologic degree of hepatocellular inflammation,"[9]; 1,200 IU/day",did not significantly affect
same,plasma levels of d-α-tocopherol after treatment,[10],27±6.8
same,carbonyl modified plasma proteins after treatment,[11],1.5 ± 0.4 µmol/mL
same,effect on HCV titres,[12],did not significantly affect
same,collagen expression by the skin,[13],did not inhibit collagen expression by the skin
same,collagen expression in the liver and tendons,[13],decreases collagen expression in the liver and tendons
same,hepatocellular necrosis,[14],ameliorate hepatocellular necrosis
O=CCC=O [malondialdehyde],activation of hepatic stellate cells on EHS matrix,"[1]; 50 μM, data not shown","able to activate stellate cells, but to a lesser extent"
same,activation of hepatic stellate cells on EHS matrix,[1]; 200 μM,markedly stimulated the activation of hepatic stellate cells
same,cells (+) for α-SMA,"[1]; stellate cells cultured on plastic, 58% without malondialdehyde, P<0.05",93%
same,stellate cell entry into S-phase,"[2]; 200 μM, EHS matrix",stimulated stellate cell entry into S-phase
CC(C)(Sc1cc(C(C)(C)C)c(O)c(C(C)(C)C)c1)Sc1cc(C(C)(C)C)c(O)c(C(C)(C)C)c1 [probucol],inhibition of activation and collagen expression/production,[4],success in inhibiting activation and collagen production
CCCOC(=O)c1cc(O)c(O)c(O)c1 [propyl gallate],inhibition of activation and collagen expression/production,[4],success in inhibiting activation and collagen production
CCCCC[C@H](O)/C=C/[C@H]1[C@H](O)CC(=O)[C@@H]1C/C=C\CCCC(=O)O [prostaglandin E2],hepatocellular necrosis,[14],ameliorate hepatocellular necrosis
NC(=O)c1ncn([C@@H]2O[C@H](CO)[C@@H](O)[C@H]2O)n1 [ribovirin],effectiveness,[15],neither has been shown to be very effective
"C#CCCCC(=O)c1cc(C(C)(C)C)c(O)c(C(C)(C)C)c1 [tebufelone, 4-(5′-hexynoyl)-2,6-di-tert-butylphenol]",cyclooxygenase inhibition,[16],reversibly inhibits
same,5-lipoxygenase inhibition,[17],reversibly inhibits
interferon alpha,patients requiring discontinuance or dosing adjustment,[18],20-50%

# Source: patent US6420428B1, “Treatment and prevention of hepatic disorders” (The Regents of the University of California, priority 1996, dated 2002)
